US20080279907A1, “Antimicrobial medical devices and methods for making and using same” (Ash Access Technology, Inc., priority 2007, published 2008)

Key:
[1] = Perfusion of parabens and methylene blue through polycarbonate membrane in perfusion chamber (HPLC of lower chamber); assay type: physicochemical
Experimental: An experiment was performed to determine a method for perfusing methylene blue, methyl paraben, and propyl paraben through a polycarbonate membrane with causing only minimal changes to the strength and elasticity of the membrane. In FIG. 12, there is illustrated a perfusion chamber system 50 used during the experiment. System 50 includes an upper chamber 51 and a lower chamber 52 separated by a polycarbonate membrane 53 having a thickness of 0.60 mm. The upper and lower chambers 51, 52 are generally structured to hold 10.5 cm^3 or 10.5 ml of fluid. The upper chamber 51 was connected to a peristaltic pump (not shown) and the lower chamber 52 was filled with distilled water. First and second solutions, respectively including the parabens and the methylene blue, were prepared in accordance with the method set forth in EXAMPLE 6 above. As best seen in Tables 6 and 7 below, the solutions were connected to the pump and passed through the first chamber 51 at a constant rate at 37° C. over various lengths of time.
Table 6 includes data obtained from HPLC analysis comparing the methyl paraben, propyl paraben, and methylene blue concentrations in the lower chamber 52. The parameters for the methyl and propyl paraben and methylene blue treatments are indicated in the left hand columns.

[2] = Desorption of parabens from paraben impregnated polycarbonate catheter pieces in 0.24 M sodium citrate pH 6.2 (HPLC); assay type: physicochemical
Experimental: One inch polycarbonate catheter pieces including a surface area of about 4.64 cm^2 were impregnated with methyl paraben and propyl paraben. A solution of 100% 1,2-propanediol was prepared with 9% methyl paraben and 2% propyl paraben. Pairs of the one inch catheter pieces were placed into three 25 ml flasks including 10 ml of the 1,2-propanediol and paraben solution. The flasks including the catheter pieces were placed on a shaker at 220 rpm and 27° C. for two, four, or nine hour time periods. At the end of each time period, the catheter pieces were removed, rinsed with distilled water, and dried.
Desorption analysis of the paraben impregnated catheter pieces was performed in 0.24 M sodium citrate with a pH of 6.2. The total amount of either methyl paraben or propyl paraben released from the catheter pieces was calculated using HPLC analysis performed with a Waters Alliance 2690 including a 996 Photodiode Array Detector. Each calculation used a solution of HPLC grade H2O, methanol (MeOH), and acetonitrile (CAN) which were pre-filtered through a Millipore 0.45 μm nylon filter before use. Trifluoracetic acid (TFA) was added to H2O and acetonitrile (ACN) to 0.1%. A Waters Symmetry column (C8 3.9×150 mm, 5 μm) was applied with a Waters guard column (Waters, Sentry Guard column, Nova-Pak C18, 60A, 4 μm 3.9×20 mm).
A gradient of 67% H2O/33% ACN was used for 6.5 min, ramped to 45 %/55% from 6.5 to 7.0 min, and kept at 45%/55% until 15.0 min, at 15.0 min the concentration reverted to 67%/33%, and the system was run until 18 min. Injection volume for each sample was 10 μl and samples and column were run at ambient temperature.
Table 2 includes the graphical data represented in FIG. 8 and associated with the desorption of propyl paraben from the paraben impregnated catheter pieces prepared as discussed above. Again, the samples were impregnated only with parabens and desorbed in 10 ml 0.24 M Na-citrate, pH 6.2 over time.

[3] = lower chamber, 20% PG/80% DI H2O (0.9% MP, 0.2% PP) ~9 hrs at 37 C., then MB ~10 days

Structure (SMILES): COC(=O)c1ccc(O)cc1 [MP, methyl paraben]
- time until perfused through the membrane and detected in the lower chamber ([1]; 0.60 mm polycarbonate membrane, 37° C.): within two hours
- ratio MP/PP from this sample ([1]; lower chamber sample): 4.7
- MP Conc [1, 3]: 0.047 mg/mL
- Total mg MP in 10.5 mL lower chamber [1, 3]: 0.4935 mg
- desorption by the end of the study ([2]; nearly 3 months, FIGS. 8 and 9): negligible desorption
- period of significant release ([2]; paraben impregnated catheter pieces, 0.24 M Na-citrate pH 6.2): 10 days
- Total MP released (mg)/1″ catheter ([2]; treatment 2 hrs (100% PG, 9% MP, 2% PP), time 1 hour): 0.361 mg/1″ catheter
- Total MP released (mg)/1″ catheter ([2]; treatment 2 hrs (100% PG, 9% MP, 2% PP), time 3 hours): 0.577 mg/1″ catheter
- Total MP released (mg)/1″ catheter ([2]; treatment 2 hrs (100% PG, 9% MP, 2% PP), time 7 hours): 0.84 mg/1″ catheter
- Total MP released (mg)/1″ catheter ([2]; treatment 2 hrs (100% PG, 9% MP, 2% PP), time 24 hours): 1.17 mg/1″ catheter
- Total MP released (mg)/1″ catheter ([2]; treatment 2 hrs (100% PG, 9% MP, 2% PP), time 4 days): 1.519 mg/1″ catheter
- Total MP released (mg)/1″ catheter ([2]; treatment 2 hrs (100% PG, 9% MP, 2% PP), time 5 days): 1.685 mg/1″ catheter
- Total MP released (mg)/1″ catheter ([2]; treatment 2 hrs (100% PG, 9% MP, 2% PP), time 6 days): 1.826 mg/1″ catheter
- Total MP released (mg)/1″ catheter ([2]; treatment 2 hrs (100% PG, 9% MP, 2% PP), time 8 days): 2.002 mg/1″ catheter
- Total MP released (mg)/1″ catheter ([2]; treatment 2 hrs (100% PG, 9% MP, 2% PP), time 11 days): 2.129 mg/1″ catheter
- Total MP released (mg)/1″ catheter ([2]; treatment 2 hrs (100% PG, 9% MP, 2% PP), time 13 days): 2.208 mg/1″ catheter
- Total MP released (mg)/1″ catheter ([2]; treatment 2 hrs (100% PG, 9% MP, 2% PP), time 15 days): 2.281 mg/1″ catheter
- Total MP released (mg)/1″ catheter ([2]; treatment 2 hrs (100% PG, 9% MP, 2% PP), time 18 days): 2.325 mg/1″ catheter
- Total MP released (mg)/1″ catheter ([2]; treatment 2 hrs (100% PG, 9% MP, 2% PP), time 22 days): 2.356 mg/1″ catheter
- Total MP released (mg)/1″ catheter ([2]; treatment 2 hrs (100% PG, 9% MP, 2% PP), time 29 days): 2.377 mg/1″ catheter
- Total MP released (mg)/1″ catheter ([2]; treatment 2 hrs (100% PG, 9% MP, 2% PP), time 36 days): 2.392 mg/1″ catheter
- Total MP released (mg)/1″ catheter ([2]; treatment 2 hrs (100% PG, 9% MP, 2% PP), time 50 days): 2.402 mg/1″ catheter
- Total MP released (mg)/1″ catheter ([2]; treatment 2 hrs (100% PG, 9% MP, 2% PP), time 67 days): 2.409 mg/1″ catheter
- Total MP released (mg)/1″ catheter ([2]; treatment 2 hrs (100% PG, 9% MP, 2% PP), time 81 days): 2.413 mg/1″ catheter
- Total MP released (mg)/1″ catheter ([2]; treatment 4 hrs (100% PG, 9% MP, 2% PP), time 1 hour): 0.603 mg/1″ catheter
- Total MP released (mg)/1″ catheter ([2]; treatment 4 hrs (100% PG, 9% MP, 2% PP), time 3 hours): 1.04 mg/1″ catheter
- Total MP released (mg)/1″ catheter ([2]; treatment 4 hrs (100% PG, 9% MP, 2% PP), time 7 hours): 1.472 mg/1″ catheter
- Total MP released (mg)/1″ catheter ([2]; treatment 4 hrs (100% PG, 9% MP, 2% PP), time 24 hours): 2.223 mg/1″ catheter
- Total MP released (mg)/1″ catheter ([2]; treatment 4 hrs (100% PG, 9% MP, 2% PP), time 4 days): 2.774 mg/1″ catheter
- Total MP released (mg)/1″ catheter ([2]; treatment 4 hrs (100% PG, 9% MP, 2% PP), time 5 days): 3.01 mg/1″ catheter
- Total MP released (mg)/1″ catheter ([2]; treatment 4 hrs (100% PG, 9% MP, 2% PP), time 6 days): 3.146 mg/1″ catheter
- Total MP released (mg)/1″ catheter ([2]; treatment 4 hrs (100% PG, 9% MP, 2% PP), time 8 days): 3.324 mg/1″ catheter
- Total MP released (mg)/1″ catheter ([2]; treatment 4 hrs (100% PG, 9% MP, 2% PP), time 11 days): 3.449 mg/1″ catheter
- Total MP released (mg)/1″ catheter ([2]; treatment 4 hrs (100% PG, 9% MP, 2% PP), time 13 days): 3.536 mg/1″ catheter
- Total MP released (mg)/1″ catheter ([2]; treatment 4 hrs (100% PG, 9% MP, 2% PP), time 15 days): 3.597 mg/1″ catheter
- Total MP released (mg)/1″ catheter ([2]; treatment 4 hrs (100% PG, 9% MP, 2% PP), time 18 days): 3.646 mg/1″ catheter
- Total MP released (mg)/1″ catheter ([2]; treatment 4 hrs (100% PG, 9% MP, 2% PP), time 22 days): 3.676 mg/1″ catheter
- Total MP released (mg)/1″ catheter ([2]; treatment 4 hrs (100% PG, 9% MP, 2% PP), time 29 days): 3.701 mg/1″ catheter
- Total MP released (mg)/1″ catheter ([2]; treatment 4 hrs (100% PG, 9% MP, 2% PP), time 36 days): 3.722 mg/1″ catheter
- Total MP released (mg)/1″ catheter ([2]; treatment 4 hrs (100% PG, 9% MP, 2% PP), time 50 days): 3.74 mg/1″ catheter
- Total MP released (mg)/1″ catheter ([2]; treatment 4 hrs (100% PG, 9% MP, 2% PP), time 67 days): 3.749 mg/1″ catheter
- Total MP released (mg)/1″ catheter ([2]; treatment 4 hrs (100% PG, 9% MP, 2% PP), time 81 days): 3.755 mg/1″ catheter
- Total MP released (mg)/1″ catheter ([2]; treatment 9 hrs (100% PG, 9% MP, 2% PP), time 1 hour): 0.67 mg/1″ catheter
- Total MP released (mg)/1″ catheter ([2]; treatment 9 hrs (100% PG, 9% MP, 2% PP), time 3 hours): 1.18 mg/1″ catheter
- Total MP released (mg)/1″ catheter ([2]; treatment 9 hrs (100% PG, 9% MP, 2% PP), time 7 hours): 1.504 mg/1″ catheter
- Total MP released (mg)/1″ catheter ([2]; treatment 9 hrs (100% PG, 9% MP, 2% PP), time 24 hours): 1.993 mg/1″ catheter
- Total MP released (mg)/1″ catheter ([2]; treatment 9 hrs (100% PG, 9% MP, 2% PP), time 4 days): 2.725 mg/1″ catheter
- Total MP released (mg)/1″ catheter ([2]; treatment 9 hrs (100% PG, 9% MP, 2% PP), time 5 days): 3.082 mg/1″ catheter
- Total MP released (mg)/1″ catheter ([2]; treatment 9 hrs (100% PG, 9% MP, 2% PP), time 6 days): 3.27 mg/1″ catheter
- Total MP released (mg)/1″ catheter ([2]; treatment 9 hrs (100% PG, 9% MP, 2% PP), time 8 days): 3.456 mg/1″ catheter
- Total MP released (mg)/1″ catheter ([2]; treatment 9 hrs (100% PG, 9% MP, 2% PP), time 11 days): 3.593 mg/1″ catheter
- Total MP released (mg)/1″ catheter ([2]; treatment 9 hrs (100% PG, 9% MP, 2% PP), time 13 days): 3.676 mg/1″ catheter
- Total MP released (mg)/1″ catheter ([2]; treatment 9 hrs (100% PG, 9% MP, 2% PP), time 15 days): 3.734 mg/1″ catheter
- Total MP released (mg)/1″ catheter ([2]; treatment 9 hrs (100% PG, 9% MP, 2% PP), time 18 days): 3.788 mg/1″ catheter
- Total MP released (mg)/1″ catheter ([2]; treatment 9 hrs (100% PG, 9% MP, 2% PP), time 22 days): 3.832 mg/1″ catheter
- Total MP released (mg)/1″ catheter ([2]; treatment 9 hrs (100% PG, 9% MP, 2% PP), time 29 days): 3.872 mg/1″ catheter
- Total MP released (mg)/1″ catheter ([2]; treatment 9 hrs (100% PG, 9% MP, 2% PP), time 36 days): 3.912 mg/1″ catheter
- Total MP released (mg)/1″ catheter ([2]; treatment 9 hrs (100% PG, 9% MP, 2% PP), time 50 days): 3.944 mg/1″ catheter
- Total MP released (mg)/1″ catheter ([2]; treatment 9 hrs (100% PG, 9% MP, 2% PP), time 67 days): 3.958 mg/1″ catheter
- Total MP released (mg)/1″ catheter ([2]; treatment 9 hrs (100% PG, 9% MP, 2% PP), time 81 days): 3.967 mg/1″ catheter
